# Earlier results, collected in PMC9096979 (ACS Omega, 2022).
# Molecular target: myotoxin II (Bothrops asper, UniProt P24605)
# Sequence (P24605 17-137 limits assumed): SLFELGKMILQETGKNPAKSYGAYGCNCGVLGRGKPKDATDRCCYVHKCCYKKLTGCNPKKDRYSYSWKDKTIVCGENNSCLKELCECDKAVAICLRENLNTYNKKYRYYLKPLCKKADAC
compound,measurement,value
Cc1ccc(C(=O)Nc2ccc(S(=O)(=O)O)c3cc(S(=O)(=O)O)cc(S(=O)(=O)O)c23)cc1NC(=O)c1cccc(NC(=O)Nc2cccc(C(=O)Nc3cc(C(=O)Nc4ccc(S(=O)(=O)O)c5cc(S(=O)(=O)O)cc(S(=O)(=O)O)c45)ccc3C)c2)c1 [suramin],"inhibition of myotoxin II, in words",capable of inhibiting myotoxin II
